Results taken from US4623648A, “1-azaxanthone for use as therapeutic agent as an antipyretic, analgesic, anti-inflammatory and bronchodilator” (priority 1981, dated 1986).
≈ marks a conversion by molar mass, not a printed value.

What was measured:
mice [1] = experiment: Acetic acid induced writhing in mice; assay type: in vivo; settings: Mus musculus; oral; 95% confidence limits 2.1-3.4
Procedure: (§1) Sprague-Dawley rats, Swiss mice, California rabbits and mongrel guinea pigs and cats were used. 1-azaxanthone was administered as a suspension in 0.5 % w/v of carboxymethyl-cellulose in distilled water for oral and i.p. administration. When administered i.v. or to the nutrient liquid of the isolated tissues, a solution of the compound in isopropylidenglycerol (15 mg/ml) was used.
Acetic acid induced writhing in mice (according to R. Koster et al., Fedn. Proc. 1959, 18, 412).

rats [2] = experiment: Yeast-induced hyperthermia in rats; assay type: in vivo
Procedure: as §1
Yeast-induced hyperthermia in rats (according to U. M. Teotino et al., J. Med. Chem. 1963, 6, 248). The test compound was administered by oral route 1 hour before the s.c. injection of the pyrogenic agent.

rabbits = experiment: Lipopolysaccharide hyperthermia in rabbits with established fever; assay type: in vivo; settings: 200 mg/kg i.p.
Procedure: as §1
Hyperthermia induced in rabbits by i.v. injection of lipopolysaccharide of Escherichia coli (according to C. A. Winter and G. W. Nuss, Toxic. Appl. Pharmacol. 1963, 5, 247). […] The compound was also effective when administered to rabbits with established fever; for example, when 200 mg/kg of 1-azaxanthone were administered i.p. to a group of 5 rabbits from a total of 10 with mean hyperpyrexia of +1.15° C. 2 hours after the lipopolysaccharide injection, the hyperpyrexia of the treated group was +0.7° C. at 2 hours and +0.1° C. at 3 hours, while the hyperpyrexia of the untreated animals was 1.5° C. at 2 hours and 1.15° C. at 3 hours (all periods after administration of the test compound).

[3] = test system: bilaterally suprarenalectomized rats; experiment: Carrageenan paw oedema in bilaterally suprarenalectomized rats; assay type: in vivo; settings: 200 mg/kg per os
Procedure: as §1
Carrageenan rat paw oedema (according to C. A. Winter et al., Proc. Soc. Exptl. Biol. N.Y. 1962, 111, 544).

granuloma tissue = experiment: Cotton-pellet granuloma; assay type: in vivo; settings: 200 mg/kg/day per os, 5 consecutive days
Procedure: as §1
Cotton-pellet granuloma (according to R. Meier et al., Experientia (Basel), 1950, 6, 469).

Evans blue permeability = Evans blue permeability assay; settings: in vivo
[4] = test system: Mycob. Butyricum induced arthritis; experiment: Mycob. Butyricum induced arthritis; assay type: in vivo; settings: only in preventative treatment
Text: Butyricum induced arthritis (only in preventative treatment).

mice [5] = experiment: Charcoal intestinal transit in mice; assay type: in vivo
Procedure: as §1
Charcoal intestinal transit in mice. 1-azaxanthone was administered i.p. 1 hour before the oral administration of 0.1 ml/mouse of an active charcoal suspension (10 g of charcoal and 1 g of gum arabicum +70 ml of distilled water). 1.5 hours after the charcoal administration the animals were sacrificed, and the length travelled by the charcoal from the pylorus was measured.

cats = experiment: Physiologic peristaltic movements in cats; assay type: in vivo; settings: 4 mg/kg endovenously
Procedure: as §1

rats [6] = experiment: Diuretic activity in rats; assay type: in vivo; settings: 10 mg/kg oral
Procedure: as §1
1-azaxanthone was administered orally to rats (groups of 10) in a volume of 5 ml/rat immediately before allocating the animals to metabolism cages. The total volume of urine was measured 6 and 24 hours later. 10 mg/kg of 1-azaxanthone increased the total volume with respect to the control group by 94% in the first 6 hours and 44% in the 24 hours period.

[7] = Acute toxicity in rats and mice (overall ranges); settings: in vivo, depending on species and sex
Procedure: The acute toxicity of 1-azaxanthone was evaluated in rats and mice. LD50 values ranged between 400-600 mg/kg (i.p. route) and between 600-2000 mg/kg (oral route) depending on species and sex.

rats [8] = experiment: 14 day oral tolerance of gastric and rectal mucosae and liver elimination of sulphobromophthalein; assay type: in vivo; settings: 200 mg/kg/day oral, 14 consecutive days
rats [9] = experiment: Subacute toxicity study in rats (42 days); assay type: in vivo
rats [10] = experiment: Chronic administration to rats (92 days); assay type: in vivo
central nervous system = experiment: Effect on the central nervous system; assay type: in vivo, mice and rats
[11] = Solubility by the equilibrium (saturation) technique; assay type: physicochemical; settings: 20-25° C.
Procedure: The solubilities of 1-azaxanthone in several solvents were determined at 20-25° C. by the equilibrium (saturation) technique, measuring the concentration spectrophotometrically at 335 nm or by high pressure liquid chromatography/spectrophotometry. The following values (in mg/ml) were obtained: water: 0.08; 0.1 N HCl: 0.07; 0.1 N NaOH: 0.07; buffer pH 7.4: 0.06; methanol: 7.6; ethanol: 6.2; propyleneglycol: 5.0; ethyl acetate: 20; chloroform: >50; dioxane: 65.

[12] = Water solubility (general statement); assay type: physicochemical

Question: With `O=c1c2ccccc2oc2ncccc12` [1-azaxanthone] as the molecule, how does the ED50 (mice [1]) read?
Answer: Its ED50 is 2.8 mg/kg.

Question: What about the antipyretic effect (rats [2]; 0.375 mg/kg, 2nd and 3rd hours) of the same molecule?
Answer: The antipyretic effect was “statistically significant antipyretic effect”.

Question: What about the prevention of hyperthermia (rats [2]; 6.2 mg/kg oral, 4 hours after yeast injection (control increase 1.8° C.)) of the same molecule?
Answer: The prevention of hyperthermia was “completely prevented the hyperthermia”.

Question: What about the “decrease of hyperthermia with respect to control increase” value (rats [2]; 6.2 mg/kg oral, 6 hours after yeast injection (control total increase 1.4° C.)) of the same molecule?
Answer: The value was 0.8 °C.

Question: What about the “hyperpyrexia of the treated group” value (rabbits; 2 hours after administration (untreated 1.5° C.)) of the same molecule?
Answer: Its value is “+0.7 °C”.

Question: What about the “hyperpyrexia of the treated group” value (rabbits; 3 hours after administration (untreated 1.15° C.)) of the same molecule?
Answer: Its value is “+0.1 °C”.

Question: And the inhibition of oedema [3]?
Answer: Its inhibition of oedema is 39%.

Question: What about the “inhibition of weight of dried granuloma tissue” value (granuloma tissue) of the same molecule?
Answer: Its value is 17.4%.

Question: What about the “inhibition of weight of wet granuloma tissue” value (granuloma tissue) of the same molecule?
Answer: Its value is 13.5%.

Question: And the “activity in Evans blue permeability assay” value (Evans blue permeability)?
Answer: Its value is “showed activity”.

Question: And the “activity in Mycob. Butyricum induced arthritis” value [4]?
Answer: Its value is “showed activity”.

Question: What about the “inhibition of charcoal intestinal transit” value (mice [5]; 4 mg/kg i.p.) of the same molecule?
Answer: The value was 15%.

Question: And the “inhibition of charcoal intestinal transit” value (mice [5]; 6.2 mg/kg i.p.)?
Answer: Its value is 22%.

Question: And the “inhibition of charcoal intestinal transit” value (mice [5]; 12.5 mg/kg i.p.)?
Answer: The value was 37%.

Question: What about the “inhibition of charcoal intestinal transit” value (mice [5]; doses lower than 4 mg/kg i.p.) of the same molecule?
Answer: Its value is “inactive”.

Question: And the “inhibition of physiologic peristaltic movements” value (cats)?
Answer: The value was “inhibited physiologic peristaltic movements”.

Question: And the sodium excretion (rats [6])?
Answer: Its sodium excretion is “increased”.

Question: What about the “increase of total urine volume with respect to control” value (rats [6]; 24 hours period) of the same molecule?
Answer: The value was 44%.

Question: What about the “increase of total urine volume with respect to control” value (rats [6]; first 6 hours) of the same molecule?
Answer: The value was 94%.

Question: And the LD50 ([7]; ip)?
Answer: Its LD50 is 400 to 600 mg/kg.

Question: What about the LD50 ([7]; oral) of the same molecule?
Answer: Its LD50 is 600 to 2000 mg/kg.

Question: And the “liver elimination of sulphobromophthalein” value (rats [8])?
Answer: The value was “eliminated sulphobromophthalein well”.

Question: What about the “tolerance of gastric and rectal mucosae” value (rats [8]) of the same molecule?
Answer: The value was “tolerated the compound well”.

Question: What about the reversibility of hepatomegaly (rats [9]; another study, on discontinuing the administration) of the same molecule?
Answer: Its reversibility of hepatomegaly is “fully reversible”.

Question: And the hepatomegaly (rats [9]; oral, 42 days)?
Answer: Its hepatomegaly is “developed a hepatomegaly”.

Question: And the histology of hepatomegaly (rats [9]; oral, 42 days)?
Answer: Its histology of hepatomegaly is “increased volume of hepatic nucleoles”.

Question: What about the drug-related toxic effect (rats [9]; oral, 42 days, up to 200 mg/kg/day) of the same molecule?
Answer: Its drug-related toxic effect is “did not show any drug-related toxic effect”.

Question: And the “effect on body weight increase and hematological/serum parameters” value (rats [10]; 25 mg/kg/day oral)?
Answer: The value was “without statistically significant effect”.

Question: What about the “alteration of parameters compared to control group” value (rats [10]; 100 mg/kg/day oral) of the same molecule?
Answer: Its value is “some of these parameters were altered”.

Question: What about the survival (rats [10]; oral) of the same molecule?
Answer: Its survival is “all animals survived”.

Question: What about the “weights of the main organs” value (rats [10]; oral) of the same molecule?
Answer: Its value is “within normal limits”.

Question: And the “activity on the central nervous system” value (central nervous system; in vivo)?
Answer: Its value is “Clear activity on the central nervous system was not observed”.

Question: And the signs of depression (central nervous system; mice and rats at high doses)?
Answer: Its signs of depression is “some signs of depression”.

Question: And the solubility ([11]; 0.1 N HCl)?
Answer: The solubility was 70 µg/mL (≈ 0.355 mM).

Question: And the solubility ([11]; 0.1 N NaOH)?
Answer: The solubility was 70 µg/mL (≈ 0.355 mM).

Question: And the solubility ([11]; aqueous buffer, buffer pH 7.4)?
Answer: The solubility was 60 µg/mL (≈ 0.304 mM).

Question: And the solubility ([11]; organic solvent or mixture, chloroform)?
Answer: The solubility was > 50000 µg/mL.

Question: And the solubility ([11]; organic solvent or mixture, dioxane)?
Answer: Its solubility is 65000 µg/mL (≈ 330 mM).

Question: And the solubility ([11]; organic solvent or mixture, ethanol)?
Answer: Its solubility is 6200 µg/mL (≈ 31.4 mM).

Question: And the solubility ([11]; organic solvent or mixture, ethyl acetate)?
Answer: The solubility was 20000 µg/mL (≈ 101 mM).

Question: What about the solubility ([11]; organic solvent or mixture, methanol) of the same molecule?
Answer: Its solubility is 7600 µg/mL (≈ 38.5 mM).

Question: What about the solubility ([11]; organic solvent or mixture, propyleneglycol) of the same molecule?
Answer: Its solubility is 5000 µg/mL (≈ 25.4 mM).

Question: And the solubility ([11]; water)?
Answer: The solubility was 80 µg/mL (≈ 0.406 mM).

Question: And the water solubility [12]?
Answer: The water solubility was “low water solubility”.
